Common to all, as to experiment: ≥ marks a high value that may be exact or a test limit, other limits are often not marked, values filed in µg/mL are converted to µM
For assay [1], the system named is Staphylococcus epidermidis ATCC 12228.
Assay [2] concerns Salmonella enterica subsp. enterica serovar Typhimurium ATCC 14028.
For assay [3], the system named is Staphylococcus aureus ATCC 29213.
The test system of assay [4] is Escherichia coli UB1005.
The test system of assay [5] is Bacillus subtilis CMCC 63501.
Assay [6] concerns Escherichia coli ATCC 25922.
Assay [7] deals with Salmonella typhimurium ATCC 7731.
Assay [8] has as its system Pseudomonas aeruginosa ATCC 27853.
Assay [9] has as its system Streptococcus mutans ATCC 25175.
Assay [10] concerns Staphylococcus aureus ATCC 12600.
Assay [11] has as its system Enterococcus faecalis NCTC 12697.
Assay [12] has as its system Staphylococcus aureus ATCC 43300.
In assay [13] the test system is Chromobacterium violaceum ATCC 12472.
The subject of assay [14] is Staphylococcus aureus NCTC 10788.
For assay [15], the system named is Escherichia coli NCTC 10418.
For assay [16], the system named is Staphylococcus aureus NCTC 12493.
Assay [17] relates to Candida albicans NCPE 1467.
Assay [18] deals with Escherichia coli ATCC 2592.
The test system of assay [19] is Staphylococcus aureus ATCC 6538.
The subject of assay [20] is Pseudomonas aeruginosa ATCC 9027.
The subject of assay [21] is Staphylococcus aureus 1550.
Assay [22] concerns Micrococcus luteus ATCC 9341.
Assay [23] concerns Aeromonas hydrophila ATCC 35654.
In assay [24] the test system is Micrococcus luteus ATCC 49732.
The subject of assay [25] is Staphylococcus aureus ATCC 25923.
For assay [26], the system named is Escherichia coli NBRC 3972.
Assay [27] has as its system Candida viswanathii NBRC 10321.
For assay [28], the system named is Staphylococcus epidermidis NBRC 12993.
In assay [29] the test system is Micrococcus luteus NBRC 3333.
In assay [30] the test system is Pseudomonas putida NBRC 100650.
In assay [31] the test system is Aspergillus oryzae NBRC 100959.
Assay [32] concerns Lacticaseibacillus rhamnosus 7469.
The test system of assay [33] is Lacticaseibacillus rhamnosus 1.0385.
Assay [34] concerns Lacticaseibacillus rhamnosus 1.0911.
The test system of assay [35] is Lacticaseibacillus rhamnosus 1.0386.
The test system of assay [36] is Lactiplantibacillus plantarum 8014.
Assay [37] deals with Lacticaseibacillus rhamnosus 1.0925.

≈ marks a conversion by molar mass, not a printed value. A value given as a limit tells only on which side of the number the result lay.

Take `CC[C@H](C)[C@H](NC(=O)[C@H](C)NC(=O)[C@H](CCCCN)NC(=O)[C@H](Cc1ccc(O)cc1)NC(=O)[C@@H](N)CC(C)C)C(=O)N[C@@H](CCCN=C(N)N)C(=O)N[C@@H](CCCN=C(N)N)C(=O)N[C@@H](CCCCN)C(N)=O` [LYKAIRRK]: the MIC in [1] was above 128 µM; in [2] it was above 128 µM; in assay [3] it was above 128 µM; in assay [4] it was at least 128 µM; in assay [5], at least 128 µM; in assay [6], above 128 µM. Moreover, the minimum inhibitory concentration (MIC) in assay [7] was at least 128 µM; in [8] it was above 128 µM.

As for `CC[C@H](C)[C@H](NC(=O)[C@H](C)NC(=O)CNC(=O)[C@H](Cc1ccccc1)NC(=O)[C@H](CC(C)C)NC(=O)CN)C(=O)N[C@@H](C)C(=O)NCC(=O)N[C@@H](Cc1ccccc1)C(=O)N[C@H](C(=O)N[C@@H](CCCCN)C(=O)N[C@@H](CCCCN)C(=O)NCC(=O)N[C@@H](Cc1c[nH]c2ccccc12)C(=O)N1CCC[C@H]1C(=O)NCC(=O)N[C@@H](CC(C)C)C(=O)N[C@H](C(=O)N[C@@H](CCCCN)C(=O)NCC(N)=O)C(C)C)[C@@H](C)CC` [GLFGAIAGFIKKGWPGLVKG], the MIC in assay [9] is 1.9 µM (≈ 3.83 µg/mL); in [6], 7.8 µM (≈ 15.7 µg/mL); in assay [8], 15.5 µM (≈ 31.2 µg/mL); in [10], 3.9 µM (≈ 7.86 µg/mL).

Consider `CC[C@H](C)[C@H](NC(=O)[C@H](C)NC(=O)[C@H](C)NC(=O)[C@@H]1CCCN1C(=O)[C@@H](NC(=O)[C@H](CC(C)C)NC(=O)[C@H](CCCCN)NC(=O)[C@H](CO)NC(=O)[C@H](C)NC(=O)[C@@H](NC(=O)[C@H](CCCCN)NC(=O)[C@H](Cc1ccccc1)NC(=O)[C@H](CC(C)C)NC(=O)[C@H](C)NC(=O)CNC(=O)[C@H](CC(C)C)NC(=O)[C@@H](N)Cc1ccccc1)C(C)C)C(C)C)C(=O)N[C@H]1CSSC[C@@H](C(=O)O)NC(=O)[C@H](CCCCN)NC(=O)[C@H](CCCCN)NC(=O)[C@H](CO)NC(=O)[C@H]([C@@H](C)CC)NC(=O)[C@H](CO)NC1=O` [FLGALFKVASKLVPAAICSISKKC], for which the MIC in assay [11] is 12.8 µM (≈ 31.9 µg/mL); in assay [12] it was 51.3 µM (≈ 128 µg/mL); in [13], at least 205 µM; in assay [14], 2 µM (≈ 4.99 µg/mL); in assay [15] it was 8 µM (≈ 19.9 µg/mL); in assay [16], 4 µM (≈ 9.97 µg/mL). Besides, the MIC in assay [8] came out at 32 µM (≈ 79.8 µg/mL); in assay [17] it was 4 µM (≈ 9.97 µg/mL).

With `CC(C)[C@H](NC(=O)[C@H](CCCCN)NC(=O)[C@H](Cc1ccccc1)NC(=O)[C@@H](NC(=O)[C@@H](NC(=O)[C@H](CCCCN)NC(=O)[C@@H](N)CCCCN)C(C)C)C(C)C)C(=O)N[C@@H](CCCCN)C(=O)N[C@@H](Cc1ccccc1)C(=O)N[C@@H](CCCCN)C(=O)O` [KKVVFKVKFK], the MIC was 8 µM (≈ 10 µg/mL) in assay [18]; 2.49 µM (≈ 3.12 µg/mL) in assay [19]; 4 µM (≈ 5 µg/mL) in assay [20]; 17.6 µM (≈ 22 µg/mL) in assay [21]; 3.2 µM (≈ 4 µg/mL) in assay [22].

Consider `CC(C)C[C@H](NC(=O)[C@H](Cc1cnc[nH]1)NC(=O)[C@H](C)NC(=O)[C@H](CCCCN)NC(=O)[C@H](CCCCN)NC(=O)[C@H](Cc1ccccc1)NC(=O)[C@H](CO)NC(=O)[C@H](CCCCN)NC(=O)[C@H](CC(=O)O)NC(=O)[C@H](Cc1cnc[nH]1)NC(=O)[C@H](Cc1c[nH]c2ccccc12)NC(=O)[C@H](CCCN=C(N)N)NC(=O)[C@H](CCC(N)=O)NC(=O)[C@H](CCC(N)=O)NC(=O)[C@H](CCCN=C(N)N)NC(=O)[C@@H](N)CCCN=C(N)N)C(=O)NCC(=O)N[C@H](C(=O)N[C@@H](C)C(=O)N[C@H](C(=O)N[C@@H](CCCCN)C(=O)N[C@@H](C)C(N)=O)C(C)C)[C@@H](C)O` [RRQQRWHDKSFKKAHLGTAVKA], for which the minimal inhibitory concentration (MIC) in assay [23] was 20 µM (≈ 53 µg/mL); in [6], above 20 µM; in assay [24], 20 µM (≈ 53 µg/mL); in assay [25] it was above 20 µM.

Consider `CC[C@H](C)[C@H](NC(=O)[C@H](CCSC)NC(=O)[C@H](CCCN=C(N)N)NC(=O)[C@H](CCCN=C(N)N)NC(=O)[C@H](CC(C)C)NC(=O)[C@H](Cc1ccc(O)cc1)NC(=O)[C@H](CCCN=C(N)N)NC(=O)[C@H](CCCCN)NC(=O)[C@@H](NC(=O)[C@H](CCCCN)NC(=O)[C@@H](N)CCCN=C(N)N)[C@@H](C)CC)C(=O)O` [RKIKRYLRRMI], for which the MIC in assay [26] turned out to be 4.08 µM (≈ 6.25 µg/mL); in [27], 8.15 µM (≈ 12.5 µg/mL); in assay [28] it was 4.08 µM (≈ 6.25 µg/mL); in assay [29] it was 2.04 µM (≈ 3.13 µg/mL); in [30], 8.15 µM (≈ 12.5 µg/mL); in [31] it was 16.3 µM (≈ 25 µg/mL).

Take `NC(=O)[C@H](CCCN=C(N)N)NC(=O)[C@H](CCCN=C(N)N)NC(=O)[C@H](Cc1c[nH]c2ccccc12)NC(=O)[C@H](Cc1ccc(O)cc1)NC(=O)[C@H](Cc1c[nH]c2ccccc12)NC(=O)[C@H](Cc1c[nH]c2ccccc12)NC(=O)[C@H](Cc1c[nH]c2ccccc12)NC(=O)[C@H](Cc1ccc(O)cc1)NC(=O)[C@H](Cc1c[nH]c2ccccc12)NC(=O)[C@H](CCCN=C(N)N)NC(=O)[C@@H](N)CCCN=C(N)N` [RRWYWWWYWRR]: the MIC was 8 µM (≈ 15.2 µg/mL) in assay [1]; 8 µM (≈ 15.2 µg/mL) in [12]; 8 µM (≈ 15.2 µg/mL) in [3]; at least 64 µM in [32]; at least 32 µM in assay [4]; 32 µM (≈ 60.8 µg/mL) in [6]. Also, the MIC in assay [33] was 16 µM (≈ 30.4 µg/mL); in assay [34] it was at least 64 µM; in assay [35], 16 µM (≈ 30.4 µg/mL); in [36], 4 µM (≈ 7.6 µg/mL); in [37], at least 64 µM; in [8], 8 µM (≈ 15.2 µg/mL).

The MIC is the lowest concentration that inhibits growth of the organism.

These data come from DBAASP.
